Measurements as given in US12285433B2, “Diltiazem for use in the treatment of microbial infections” (UNIVERSITE CLAUDE BERNARD LYON 1, priority 2018, dated 2025).

How the values were obtained:
[1] = system: interferon lambda 1 (IL-29); assay: ELISA measurement of interferon lambda 1 (IL-29) secretion by reconstituted human respiratory epithelia; type: cell-based; settings: ELISA after 72 h; 90 μM via basolateral pole, 3 administrations
Procedure: (§1) Reconstituted human respiratory epithelia (MucilAir® HAE, Epithelix) were maintained in culture at the air-liquid interface according to the instructions of the supplier Epithelix and were treated or not with diltiazem (90 μM) via their culture medium at their basolateral pole. The diltiazem treatment was repeated for 3 consecutive days (3 administrations in total).
Secretion levels (pg/mL) of interferon lambda 1 (IL-29) at the apical and basolateral poles of human respiratory epithelia treated and untreated with diltiazem were measured by ELISA after 72 h of treatment according to the supplier's instructions (#3570-1H, Mabtech, Stockholm, Sweden).

[2] = system: genes encoding the type III interferons IFN-λ1, IFN-λ2 and IFN-λ3; assay: RNAseq expression of type III interferon genes and response genes, basolateral treatment of reconstituted human respiratory epithelia (MucilAir HAE); type: cell-based; settings: 90 μM via basolateral pole, 3 days (3 administrations)
Procedure: as §1, with “Epithelix)” for “Epithelix) were”, “Epithelix,” for “Epithelix and”
Treated and untreated epithelia were then lysed with 150 μL of RLT buffer (Qiagen). […] Each library was amplified, quantified and indexed with primers provided in the ScriptSeq™ Index PCR Primers Kit (RSBC10948, Epicentre) and sequenced. Sequencing was conducted on an Illumina HiSeq 2500 system with a minimum requirement of 40 million “reads” sequenced per sample.
The demultiplexing of the data and the conversion of the BCL files resulting from the sequencing into FASTQ files were carried out using Illumina's bcl2fastq tool, in its version 1.8.4. […] A pseudo-alignment of the trimmed reads on the human genome (Homo Sapiens: GRCh38.p11) using the Kallisto software was performed, followed by a statistical analysis using the R 3.3.1 software and the EdgeR 3.14.0 package.
The differential in gene expression between epithelial cells treated with diltiazem and control epithelial cells was calculated using a linear model with a p-value correction by the Benjamini-Hochberg method. […]

[3] = system: respiratory syncytial virus (RSV); assay: RSV challenge infection in BALB/c mouse model, pulmonary viral titers by RT-qPCR (F gene); type: in vivo; settings: BALB/c mice, 5×10^5 PFU RSV intranasally; 50 mg/kg per os, 5 treatments; day 5 post-infection
Procedure: FIG. 4D schematically represents the chronology of infection and treatment of the mice: • BALB/c mice were randomized into 3 groups of 5 individuals and then infected intranasally with 50 μL of a viral suspension containing 5×10^5 PFU of RSV (Day 0). Six hours before infection, the mice were treated with either 40 mg/kg intraperitoneal ribavirin (RSV RIB) or 50 mg/kg diltiazem peros (RSV DIL), or PBS (RSV PBS) as negative control. • The same treatments were repeated every 24 h, with a total of 3 treatments for ribavirin and 5 treatments for diltiazem or PBS. • On day 5 post-infection (D5, corresponding to the peak of viral replication), the mice in each group were euthanized and their lungs were aseptically recovered to measure their pulmonary viral titers by RTqPCR (F gene).
RT-qPCR quantification of the RSV viral genome copy number (quantifying the copies of the F gene) relative to the total amount of RNA extracted from the lungs at 5 days post-infection was performed, and the results are presented in FIG. 4E.
The following statistical tests were used: One-way ANOVA with Bonferroni post-test to compare each virus to the mock condition (PBS treatment). *p<0.05.

[4] = system: IFIT1, IFIT2, IFIT3, IF127, IFN-λ1, IFN-λ2, IF144L and IFITM1 genes; assay: RT-qPCR confirmation of induction of 8 genes associated with the type III interferon response; type: cell-based, human; settings: 90 μM via basolateral pole, 3 days
[5] = system: human parainfluenza virus type 3 (strain C243 ATCC VR-93); assay: hPIV-3 replication in reconstituted human respiratory epithelia (cytopathic effect, TEER, TCID50 titration in LLC-MK2 cells); type: cell-based; settings: MOI 0.1, 90 μM basolateral daily
Procedure: Reconstituted human respiratory epithelia were infected with human parainfluenza virus type 3 (strain C243 ATCC VR-93) at an MOI of 0.1, and treatment of the basolateral medium with 90 μM diltiazem was started 2 hours post-infection and continued daily for 4 consecutive days. Transepithelial electrical resistance (TEER), which reflects the integrity of the epithelium, was measured once daily from 48 h post-infection to 120 hours post-infection.
Apical infectious viral titers (TCID50/mL) were determined in LLC-MK2 cells from washings collected starting 48 h post-infection (hpi), and up to 120 hpi, as shown in FIG. 5A.

[6] = system: recombinant hMPV-GFP virus (strain C-85473); assay: hMPV replication in reconstituted human respiratory epithelia (GFP epifluorescence, RT-qPCR of N gene); type: cell-based, human metapneumovirus; settings: MOI 0.1
Procedure: Viral replication in reconstituted human epithelial models (MucilAir® HAE, Epithelix) of nasal origin was studied on epithelia treated or not treated with diltiazem. To that end, (i) fluorescence light microscopy photos were used to evaluate the efficacy and progression of the infection and (ii) quantification of the viral genome by RTqPCR was performed, on the one hand at the apical pole of the epithelium (surface harvesting) to quantify the excretion of viral progeny, and on the other hand in the total lysates of epithelial cells at end point (day 5 post-infection) to quantify intracellular viral replication within the epithelium.
Human respiratory epithelia (Mucilair, Epithelix) were infected with a recombinant hMPV-GFP virus (strain C-85473) at an MOI of 0.1, then treated (via the basolateral medium of the epithelia) or not with 3 successive doses of diltiazem at 90 μM at D0, D1 and D3 post-infection (3 epithelia per condition).
Epifluorescence microscopy observations were performed on D4 post-infection to observe the impact of diltiazem treatment on viral replication (FIG. 7B).
On day 3 post-infection, a wash at the apical pole of the infected epithelium, treated or not, was performed in order to harvest the viral progeny produced. The genomic viral RNA was extracted and quantified by RT-qPCR (Biosystems™ PowerUp™ SYBR™ Green, Thermo Fisher Scientific) using a plasmid containing the HMPV N gene. The results are expressed in copies of the N gene/μg RNA extracted (FIG. 7C).
On day 5 post-infection, epithelial cells were harvested and lysed to extract total RNA. Total RNAs corresponding to the hMPV N viral gene were quantified by Rt-qPCR (Biosystems™ PowerUp™ SYBR™ Green, Thermo Fisher Scientific), using a range made from a plasmid containing the HMPV N gene. The results are expressed in copies of the N gene/μg RNA extracted (FIG. 7D).

[7] = system: respiratory syncytial virus (Long strain, ATCC VR-26); assay: RSV replication in infected reconstituted human respiratory epithelia (RT-qPCR, F gene); type: cell-based; settings: MOI 1; 90 μM basolateral, 4 administrations from 5 hpi; 6 days post-infection
Procedure: Reconstituted human respiratory epithelia (MucilAir® HAE, Epithelix) were maintained in culture at the air-liquid interface according to the instructions of the supplier Epithelix and were infected with respiratory syncytial virus (Long strain, ATCC VR-26) at a multiplicity of infection (MOI) 1, then treated or not with diltiazem (90 μM) via their culture medium at their basolateral pole. Diltiazem treatment was performed at 5 hours post-infection and then repeated for 3 consecutive days (4 administrations in total).
At 6 days post-infection, samples at the apical pole of treated and untreated infected epithelia, as well as the epithelia themselves, were lysed with 150 μL of RLT buffer (Qiagen). The process of the experiment is schematically represented in FIG. 4A.
Total RNA was extracted using the RNeasy Kit (Qiagen), according to the supplier's instructions, for quantification of viral genome copy number (F gene) by RT-qPCR at the apical pole, i.e. in the supernatant (FIG. 4B), as well as in the epithelia (FIG. 4C).

[8] = system: IFN-λ2 (IFNL2) gene; assay: In vivo induction of IFN-λ2 (IFNL2) gene expression after intranasal instillation in BALB/c mice (RT-qPCR); settings: 20 mg/kg intranasal, D0/D1/D2 or D0/D2/D4, sampled D5

Q: Which results are given for `COc1ccc([C@@H]2Sc3ccccc3N(CCN(C)C)C(=O)[C@@H]2OC(C)=O)cc1` [diltiazem]?
A: IFN-λ1 (IL-29) secretion at the apical pole [1]: very sharply increased; IFN-λ1 (IL-29) secretion at the basolateral pole [1]: significant, but less marked, increase; expression of type III interferon response genes (IF144L, IFIT1, IFIT2, IFIT3, IFITM1, ISG15, MX1, MX2, OAS1, OAS2, OAS3, OASL, RSAD2, STAT1) [2]: significantly stimulates the expression; pulmonary viral titers (RSV F gene copies, RT-qPCR) compared with PBS control group and ribavirin-treated group [3]: significantly reduced pulmonary viral titers; expression of the IFIT1, IFIT2, IFIT3, IF127, IFN-λ1, IFN-λ2, IF144L and IFITM1 genes compared with untreated epithelia [4]: significant increase; transepithelial electrical resistance (TEER), integrity of the epithelium ([5]; 48 to 120 hpi): integrity appears to be more preserved; cytopathic effects induced by hPIV-3 (microscopy) ([5]; 96 and 120 hpi): greater and easily visible microscopically in untreated reconstituted human respiratory epithelia, unlike those treated with diltiazem; infectious viral titer at the apical surface at 96 h post-infection ([5]; untreated 10^7): 10^5 TCID50/mL; fluorescence corresponding to viral expression of GFP (epifluorescence microscopy) ([6]; 90 μM basolateral at D0, D1, D3, D4 post-infection): very few fluorescent cells; reduction of viral genome (N gene) in epithelia (total lysate) versus untreated epithelia ([6]; 90 μM basolateral at D0, D1, D3, day 5 post-infection): 4 log 10; reduction of viral genome (N gene) in apical supernatants versus untreated epithelia ([6]; 90 μM basolateral, day 3 post-infection): 2 log 10; amount of RSV viral genome (F gene) in the culture supernatant (apical pole) compared with untreated epithelia [7]: much lower; amount of RSV viral genome (F gene) in the epithelium compared with untreated epithelia [7]: much lower; IFN-λ2 (IFNL2) gene expression in nasal cavities relative to mock-treated mice [8]: activates the IFN III pathway
